Some test systems named below: UACC-257; HCT-15; K562; SK-OV-3; A498; MDA-MB-435; HL-60; KM12; EKVX; MDA-N; NCI/ADR-RES; ACHN; SN12C; SNB-75; SF-268; PC-3; HCC 2998; IGROV-1; Hs-578T.
Holding throughout (assay): DTP human tumour cell line panel, 48 h

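Following 48 hours of exposure in 96-well plates, responses at five concentrations were used to interpolate endpoints linearly. Abbreviation: GI50, concentration required for 50% inhibition of growth.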 The source made the active and inactive calls. Cut-off read from the data, not from the text of the source: active = GI50 up to about 1.1 µM and inactive = higher.

`O=C(N(C1=CCCC1)N(c1ccccc1)c1ccccc1)C(F)(F)F`: the GI50 – broadly, the concentration that inhibits growth by half – was 21.6 µM (inactive) in the experiment on UACC-257; 21.4 µM in the experiment with HCT-15; 19.5 µM (inactive) in the experiment on K562; 40.1 µM (inactive) in the experiment on SK-OV-3; 51.8 µM (inactive) in the experiment with A498; 21.1 µM (inactive) with MDA-MB-435. In addition, the GI50 is 20.3 µM (inactive) with HL-60; 18.1 µM (inactive) in the experiment with KM12; 17.5 µM (inactive) with EKVX; 23.9 µM (inactive) in the experiment with MDA-N; 28.8 µM (inactive) with NCI/ADR-RES; 17.3 µM (inactive) with ACHN. The GI50 with SN12C was 26.9 µM (inactive); with SNB-75, 20 µM (inactive); in the experiment with SF-268 it was 16.7 µM (inactive); with PC-3 it was 30.3 µM (inactive); in the experiment on HCC 2998, 18.2 µM (inactive).

As to `Cc1nc(N)sc1/N=N/c1cc(Cl)c([N+](=O)[O-])cc1Cl`, the GI50 was 16.7 µM (inactive) with UACC-257; 21.4 µM with HCT-15; 13.1 µM (inactive) in the experiment on K562; 74.6 µM (inactive) with SK-OV-3; 19.4 µM (inactive) in the experiment on MDA-MB-435; 22.9 µM (inactive) in the experiment with HL-60. The GI50 is 18.1 µM (inactive) in the experiment with KM12; 20.1 µM (inactive) with IGROV-1; 13 µM (inactive) with EKVX; 20.6 µM (inactive) with NCI/ADR-RES; 20.4 µM (inactive) in the experiment on ACHN; 17.6 µM (inactive) with SN12C. In addition, the GI50 in the experiment with SNB-75 was < 0.01 µM (active); with SF-268, 29.9 µM (inactive); in the experiment on PC-3, 18.7 µM (inactive); in the experiment on Hs-578T, 21.9 µM (inactive).

`O=C(N/C(=C\c1ccc([N+](=O)[O-])cc1)c1nc2c(O)nc(S)nc2[nH]1)c1ccccc1`: the concentration for 50% growth inhibition (GI50) in the experiment with HCT-15 was over 100 µM; with K562 it was 73.1 µM (inactive); with SK-OV-3, > 100 µM (inactive); in the experiment with KM12 it was > 100 µM (inactive); with IGROV-1, > 100 µM (inactive); with EKVX, > 100 µM (inactive). Besides, the GI50 in the experiment on ACHN, in the experiment on SN12C, in the experiment with SF-268 and in the experiment on HCC 2998 was > 100 µM (inactive) throughout.

For `COC(=O)NC(=O)c1cn(C2OC(CO)C(O)C2O)c(=O)[nH]c1=O` (centres undefined), the GI50 with UACC-257 was > 100 µM (inactive); in the experiment with HCT-15, over 100 µM; with K562, > 100 µM (inactive); in the experiment on SK-OV-3, > 100 µM (inactive); with HL-60 it was > 100 µM (inactive); in the experiment with KM12, > 100 µM (inactive). Further, the GI50 with IGROV-1, in the experiment with ACHN, in the experiment on SN12C, in the experiment with SNB-75, in the experiment with SF-268 and in the experiment on HCC 2998 was > 100 µM (inactive) each time.

In the case of `O=C1C=Cc2c(Cl)sc(Cl)c21`, the GI50 with UACC-257 is 2.03 µM (inactive); in the experiment with HCT-15 it was 1.51 µM; in the experiment with K562, 0.767 µM (active); in the experiment on SK-OV-3, 15.2 µM (inactive); in the experiment with A498 it was 4.06 µM (inactive); in the experiment with MDA-MB-435, 2.02 µM (inactive). Also, the GI50 with KM12 was 0.883 µM (active); with IGROV-1, 1.63 µM (inactive); in the experiment on EKVX, 3.27 µM (inactive); in the experiment on MDA-N, 2.53 µM (inactive); in the experiment with NCI/ADR-RES, 2.03 µM (inactive); in the experiment with ACHN, 1.71 µM (inactive). For the same compound, the GI50 in the experiment with SN12C is 2.18 µM (inactive); in the experiment with SNB-75, 3.61 µM (inactive); in the experiment with SF-268, 1.66 µM (inactive); in the experiment with PC-3 it was 1.88 µM (inactive); with HCC 2998, 5.38 µM (inactive).

Consider `C=C(Br)C(Cl)(CBr)CCC(Br)C(C)(C)Cl` (centres undefined), for which the GI50 with K562, in the experiment on SK-OV-3, in the experiment with A498, with MDA-MB-435, with HL-60 and with KM12 was > 10 µM (inactive) in each case. Besides, the GI50 in the experiment with IGROV-1, in the experiment on EKVX, with MDA-N, with NCI/ADR-RES, in the experiment with ACHN and with SN12C was > 10 µM (inactive) in each case. The GI50 in the experiment with SNB-75, in the experiment with SF-268, in the experiment with PC-3 and in the experiment on HCC 2998 was > 10 µM (inactive) each time.

Regarding `Cc1cc2[nH]c3c(C#N)c(-c4ccccc4)c(CN4CCOCC4)c(=O)n3c2cc1C`, the GI50 is > 100 µM (inactive) in the experiment on UACC-257; over 100 µM in the experiment on HCT-15; > 100 µM (inactive) in the experiment on SK-OV-3; > 100 µM (inactive) in the experiment with A498; > 100 µM (inactive) in the experiment with MDA-MB-435; > 100 µM (inactive) in the experiment with KM12. Also, the GI50 in the experiment on EKVX was > 100 µM (inactive); in the experiment on MDA-N, > 100 µM (inactive); with NCI/ADR-RES, > 100 µM (inactive); in the experiment on ACHN, > 100 µM (inactive); in the experiment with SN12C it was > 100 µM (inactive); in the experiment with SNB-75, 40.7 µM (inactive). The GI50 in the experiment on SF-268, in the experiment with PC-3 and in the experiment on HCC 2998 was > 100 µM (inactive) each time.

For the compound `COC(=O)n1c(C)c(C=O)c2ccc(OC)cc21`, the GI50 was 45.2 µM (inactive) in the experiment on UACC-257; 31.1 µM with HCT-15; 38 µM (inactive) with K562; 33.8 µM (inactive) in the experiment on SK-OV-3; 21.1 µM (inactive) in the experiment on MDA-MB-435; 31.3 µM (inactive) with HL-60. The GI50 in the experiment on KM12 is 36.4 µM (inactive); with IGROV-1 it was 38.6 µM (inactive); in the experiment with EKVX, 46.5 µM (inactive); in the experiment with MDA-N it was > 10 µM (inactive); in the experiment on NCI/ADR-RES it was 49.4 µM (inactive); in the experiment on ACHN, 33.1 µM (inactive). In addition, the GI50 is 55.6 µM (inactive) with SN12C; 31.3 µM (inactive) in the experiment on SNB-75; > 10 µM (inactive) with SF-268; 31.9 µM (inactive) in the experiment on PC-3; 25.9 µM (inactive) with HCC 2998.

For `O=C(CCCN1CC=C(n2c(=O)[nH]c3ccccc32)CC1)c1cccs1`, the GI50 in the experiment with UACC-257 is > 100 µM (inactive); in the experiment with HCT-15, over 100 µM; with K562, 66.2 µM (inactive); with SK-OV-3 it was > 100 µM (inactive); in the experiment with A498 it was > 100 µM (inactive); in the experiment on MDA-MB-435 it was > 100 µM (inactive). Further, the GI50 in the experiment with HL-60, in the experiment on KM12, in the experiment on IGROV-1, in the experiment with EKVX, in the experiment with MDA-N and in the experiment on NCI/ADR-RES was > 100 µM (inactive) each time. In addition, the GI50 is > 100 µM (inactive) with ACHN; > 100 µM (inactive) in the experiment on SN12C; > 100 µM (inactive) with SNB-75; > 100 µM (inactive) in the experiment on SF-268; 93.3 µM (inactive) in the experiment on PC-3; > 100 µM (inactive) in the experiment with HCC 2998.

`Cc1ccccc1Nc1nc2ccccc2nc1NS(=O)(=O)c1ccccc1`: the GI50 in the experiment with UACC-257 is > 100 µM (inactive); in the experiment on HCT-15, over 100 µM; in the experiment with K562, > 100 µM (inactive); in the experiment on SK-OV-3, > 100 µM (inactive); with MDA-MB-435, > 100 µM (inactive); in the experiment with HL-60, > 100 µM (inactive). Besides, the GI50 in the experiment on KM12, with IGROV-1, with EKVX, with NCI/ADR-RES, in the experiment on ACHN and in the experiment with SN12C was > 100 µM (inactive) throughout. Moreover, the GI50 in the experiment on SNB-75 is 56.2 µM (inactive); in the experiment on SF-268, > 100 µM (inactive); with PC-3 it was > 100 µM (inactive); in the experiment with HCC 2998, > 100 µM (inactive); in the experiment with Hs-578T, > 100 µM (inactive).

On to `Cc1cc(S(=O)(=O)Nc2nc3ccccc3c(=O)n2N)c(S)cc1Cl`, for which the GI50 was 59.8 µM (inactive) in the experiment on UACC-257; 35.5 µM in the experiment on HCT-15; 47.2 µM (inactive) in the experiment on K562; 32.3 µM (inactive) in the experiment with SK-OV-3; 32.7 µM (inactive) with MDA-MB-435; > 100 µM (inactive) in the experiment with HL-60. Besides, the GI50 in the experiment with KM12 is 37.2 µM (inactive); in the experiment with IGROV-1 it was 43.8 µM (inactive); with EKVX it was 43.6 µM (inactive); in the experiment on MDA-N, 38.1 µM (inactive); with NCI/ADR-RES, 24.5 µM (inactive); with ACHN, 33.6 µM (inactive). Moreover, the GI50 in the experiment with SN12C was 44.5 µM (inactive); with PC-3 it was 69.3 µM (inactive); with HCC 2998, 49.3 µM (inactive).

Regarding `NC(=O)c1ncn(C2OC(CO)C(O)C2O)c1O` (centres undefined), the GI50 in the experiment with HCT-15 was 65.2 µM; with K562, > 100 µM (inactive); in the experiment on A498 it was > 100 µM (inactive); in the experiment on HL-60 it was 50.2 µM (inactive); with KM12, 46.6 µM (inactive); in the experiment with IGROV-1 it was > 100 µM (inactive). Besides, the GI50 is > 100 µM (inactive) in the experiment with EKVX; > 100 µM (inactive) with ACHN; > 100 µM (inactive) in the experiment on SN12C; > 100 µM (inactive) in the experiment with SNB-75; > 100 µM (inactive) in the experiment on SF-268; 56.8 µM (inactive) in the experiment on HCC 2998.

In the case of `CNC(=O)C(C)C1C(=O)/C(=C(O)/C=C\C(C)=C\C(C)C2OC3(C)OC(C=CC34CO4)C2C)C(=O)N1C1CCC(O)C(C)O1` (centres undefined), the GI50 with UACC-257 was > 100 µM (inactive); with HCT-15, over 100 µM; in the experiment with K562 it was > 100 µM (inactive); in the experiment on SK-OV-3, > 100 µM (inactive); in the experiment on A498, > 100 µM (inactive); in the experiment on MDA-MB-435, > 100 µM (inactive). Further, the GI50 in the experiment on KM12, in the experiment with IGROV-1, with EKVX, in the experiment on MDA-N, in the experiment on NCI/ADR-RES and in the experiment on ACHN was > 100 µM (inactive) in each case. Besides, the GI50 with SN12C, in the experiment on SNB-75, with SF-268, in the experiment on PC-3 and in the experiment with HCC 2998 was > 100 µM (inactive) in each case.

The values are drawn from ChEMBL document CHEMBL1201862, “PubChem BioAssay data set” (2004).
